Assay results as given in US20260159481A1, “INDOLE DERIVATIVE WITH SUBSTITUENT AND PHARMACEUTICAL USE” (MITOIMMUNE THERAPEUTICS INC., priority 2023, published 2026).

Key:
Assay type in all cases: cell-based
fibroblasts (NIH/3T3) = assay: Protective effect against cell death due to RSL3 (LDH release), NIH/3T3; conditions: 24 hours
Protocol: (§1) To confirm cell death protection effects on cardiac cells, adrenal medullary cells, renal fibroblasts, retinal epithelial cells, lung epithelial cells, renal proximal tubular epithelial cells, hippocampal neurons and fibroblasts, each type of cells were seeded at 4×10^3 to 1.2×10^4 cells/well in a 96-well plate and cultured for 18 to 24 hours. The example compounds were diluted to have the final concentration of 0.001, 0.003, 0.01, 0.3, 1, 3, and 10 μM, respectively, and then added to different wells and cultured for 15 to 20 minutes. […] To confirm the cell death protection effect of the example compounds, the degree of extracellular secretion of lactate dehydrogenase (LDH) was measured using a cytotoxicity LDH assay kit [Dojindo; CK12]. Briefly, at the end of 24-hour treatment of each type of cells with RSL3, 70 μL of the supernatant was taken from the 96-well plate where the cells were cultured and transferred to a new 96-well plate. The assay buffer included in the kit was added at 70 μL/well (equal to that of the sample) and the plate was covered with foil to block light and allowed to react for 15 to 20 minutes at room temperature. While observing a color change of the sample, 35 µL/well of a stop solution was added, an absorbance at 490 nm was measured using an iD3 spectrophotometer, and an EC50 value was calculated.

[1] = tested on: renal proximal tubular epithelial cells (HK2); assay: Protective effect against cell death due to RSL3 (LDH release), HK2; conditions: RSL3 0.3 μM, 24 hours
Protocol: as §1

MLE-12 cells [2] = assay: Inhibitory effect on intracellular lipid ROS (BODIPY 581/591 C11) under RSL3; conditions: 1 μM RSL3, 2 hours, compound 0.01, 0.1, 1 μM, FIG. 1
Protocol: To confirm the protective effect against intracellular lipid ROS in lung epithelial cells, MLE-12 cells were seeded at 2×10^5 cells/well in a 12-well plate and cultured for 18 to 24 hours. Example Compound 29 and Fer-1 were diluted to have the final concentration of 0.01, 0.1, and 1 μM and added to each well, and the cells were cultured for 10 minutes. Afterward, RSL3 was treated to have the final concentration of 1 μM, and the cells were cultured for 2 hours. To confirm the intracellular inhibitory effect on lipid ROS, the lipid peroxidation sensor BODIPY™ 581/591 C11 (Invitrogen™; D3861) was used. According to the manufacturer's protocol, the BODIPY™ 581/591 C11 was diluted in the culture broth to have the final concentration of […] and treated, and fluorescence staining was performed after a 30-minute reaction. The MILE-12 cells that were fluorescence-stained with BODIPY™ 581/591 C11 were detached from the 12-well plate using 0.25% trypsin-EDTA and transferred to a microtube. Fluorescence (Ex/Em=500-650 nm/510-665 nm) was measured using BD FACSLyric™, and the relative change compared to the control was calculated.

[3] = tested on: hippocampal neurons (HT-22); assay: Protective effect against cell death due to RSL3 (LDH release), HT-22; conditions: RSL3 0.3 μM, 24 hours
Protocol: as §1

MLE-12 cells [4] = assay: Inhibitory effect on mitochondrial lipid ROS (MitoPerOx) under RSL3; conditions: 1 μM RSL3, 2 hours, compound 0.01, 0.1, 1 μM, FIG. 2
Protocol: To confirm the protective effect against mito-lipid ROS in lung epithelial cells, MLE-12 cells were seeded at 2×10^5 cells/well in a 12-well plate and cultured for 18 to 24 hours. Example Compound 29 and Fer-1 were diluted to have the final concentration of 0.01, 0.1, and 1 μM and added to each well, and the cells were cultured for 10 minutes. Afterward, RSL3 was treated to have the final concentration of 1 M, and the cells were cultured for 2 hours. To confirm the inhibitory effect on mito-lipid ROS, the fluorescent mitochondria-targeted lipid peroxidation probe MitoPerOx (abcam; ab146820) was used. According to the manufacturer's protocol, MitoPerOx was diluted in the culture broth to have the final concentration of 1 μM and treated, and fluorescence staining was performed after a 30-minute reaction. The MLE-12 cells that were fluorescence-stained with MitoPerOx were detached from the 12-well plate using 0.25% trypsin-EDTA and transferred to a microtube. Fluorescence (Ex/Em=495 nm/520-590 nm) was measured using BD FACSLyric™, and the relative change compared to the control was calculated.

[5] = tested on: lung epithelial cells (MLE-12); assay: Protective effect against cell death due to RSL3 (LDH release), MLE-12; conditions: 24 hours
Protocol: as §1

[6] = tested on: retinal epithelial cells (ARPE-19); assay: Protective effect against cell death due to RSL3 (LDH release), ARPE-19; conditions: RSL3 0.3 μM, 24 hours
Protocol: as §1

[7] = tested on: renal fibroblasts (NRK-49F); assay: Protective effect against cell death due to RSL3 (LDH release), NRK-49F; conditions: RSL3 3 μM, 24 hours
Protocol: as §1

MLE-12 cells [8] = assay: Inhibitory effect on intracellular accumulation of ferrous ions (FerroOrange) under RSL3; conditions: 1 μM RSL3, 8 hours, FIG. 5
Protocol: To confirm the inhibitory effect on intracellular accumulation of ferrous ions in lung epithelial cells, MILE-12 cells were seeded at 2×10^5 cells/well in a 12-well plate and cultured for 18 to 24 hours. Example Compound 29 and Fer-1 were diluted to have the final concentration of 0.01, 0.1, 1, and 10 μM and added to each well, and the cells were cultured for 10 minutes. Afterward, RSL3 was treated to have the final concentration of 1 M, and the cells were cultured for 8 hours. To confirm the inhibitory effect on intracellular accumulation of ferrous ions, FerroOrange (DOJINDO; F374) was used. According to the manufacturer's protocol, FerroOrange was diluted in the culture broth to have the final concentration of 1 M and added, and fluorescence staining was performed after a 30-minute reaction. The MLE-12 cells that were fluorescence-stained with FerroOrange were detached from the 12-well plate using 0.25% trypsin-EDTA and transferred to a microtube. Fluorescence (Ex/Em=580 nm/[…]) was measured using BD FACSLyric™, and the relative change compared to the control (RSL3-untreated group) was calculated.

| Structure (SMILES) | EC50 (fibroblasts (NIH/3T3); Mus musculus, NIH3T3, RSL3 3 μM) [nM] | EC50 ([1]; Epithelial cell) [nM] | intracellular lipid ROS increased by RSL3 treatment (MLE-12 cells [2]) | EC50 ([3]; Mus musculus) [nM] | mito-lipid ROS increased by RSL3 treatment (MLE-12 cells [4]) | EC50 ([5]; MLE12, RSL3 1 μM) [nM] | EC50 ([6]; Homo sapiens) [nM] | EC50 ([7]; Rattus norvegicus) [nM] | intracellular ferrous ions increased by RSL3 treatment (MLE-12 cells [8]) | EC50 (fibroblasts (NIH/3T3); RSL3 3 μM) [nM] | EC50 [1] [nM] | EC50 [3] [nM] | EC50 ([5]; RSL3 1 μM) [nM] | EC50 [6] [nM] | EC50 [7] [nM] |
| --- | --- | --- | --- | --- | --- | --- | --- | --- | --- | --- | --- | --- | --- | --- | --- |
| OCCOCCOCc1cc(NC2CCOCC2)c2[nH]c(-c3ccccc3)cc2c1 [Example 29, 2-(2-((2-phenyl-7-((tetrahydro-2H-pyran-4-yl)amino)-1H-indol-5-yl)methoxy)ethoxy)ethan-1-ol] | 100 to 1000 | ≤ 100 | significantly decreased at 0.01, 0.1, and 1 μM | ≤ 100 | significantly decreased at 1 μM | ≤ 100 | ≤ 100 | ≤ 100 | significantly decreased at 0.1 and 1 μM | – | – | – | – | – | – |
| CCOC(=O)c1ccc(NC2CCCCC2)c(N)c1 [Fer-1, ferrostatin-1, reference compound] | – | – | significantly decreased at 0.01, 0.1, and 1 μM | – | significantly decreased at 1 μM | – | – | – | significantly decreased at 0.1 and 1 μM | 100 to 1000 | ≤ 100 | 100 to 1000 | 100 to 1000 | ≤ 100 | ≤ 100 |
